Assay results reported in US20030022938A1, “N-fatty acid-amino acid conjugates and therapeutic uses” (priority 2001, published 2003).
Entries after “also recorded” stand apart in the source; their conditions may differ.

Tests used:
[1] = system: formalin-induced pain behavior; assay: Formalin test for pain reduction; type: in vivo; conditions: rats
Description: Rats received intraplantar injections of formalin in the hindpaw, and pain behavior consisting of lifting and licking of the injected paw was observed. Drug or co-vehicle was coinjected with the formalin solution (4.5% formalin in 10% DMSO, 100μl, s.c., ipl.).

[2] = system: arachidonic acid-induced paw edema; assay: Arachidonic acid-induced paw edema test; type: in vivo, mice
Description: The conditions employed in the paw edema test have been previously described (Calhoun et al., Agents Actions, 21:306-309, 1987; Burstein et al., J. Pharmacology and Experimental Therapeutics, 251:531-535; Burstein et al., J. Med. Chem., 35:3135-41, 1992), with water being substituted for mercury as the displacement medium. Arachidonic acid (1.0 mg) in 25 μl of saline is injected subcutaneously into the plantar surface of the right hindpaw of ether-anesthetized CD-1 female mice (20-25 g) obtained from Charles River Laboratories. The volume of the right foot is then measured to the level of the lateral malleolus by water displacement before treatment and 30 minutes after arachidonic acid injection. An N-fatty acid-amino acid conjugate, in 50 μl of peanut oil, is given p.o. to the mice 30 min prior to the induction of edema by arachidonic acid. The change in paw volume is calculated for each mouse and the significance for each group can be determined by an ANOVA test.
The conditions were previously described by Calhoun et al. (Agents Actions, 21:306-309, 1987), and by Burstein et al. (J. Pharmacology and Experimental Therapeutics, 251:531-535; J. Med. Chem., 35:3135-41, 1992), with water being substituted for mercury as the displacement medium. Arachidonic acid (1.0 mg in 25μl of saline) was injected subcutaneously into the plantar surface of the right hindpaw of ether-anesthetized CD-1 female mice (20-25 g) obtained from Charles River Laboratories. The volume of the right foot was measured to the level of the lateral malleous by water displacement before treatment and 30 minutes after arachidonic acid injection. […] The change in paw volume was calculated for each mouse and the significance for each group was determined by an ANOVA test.

[3] = system: anandamide levels in RAW cells; assay: Anandamide levels in intact cultured RAW cells (HPLC-MS/MS); type: cell-based, murine; parameters: elevation of basal concentrations of anandamide: dose or concentration left out as unconfirmed
Description: Cells were grown as described previously (Pestonjamasp and Burstein, Biochim Biophys Acta, 1394(2-3):249-60, 1998).

IL-1β [4] = conditions: concentrations of 1 μm and 10 μm; Burstein et al. 2000; cited from earlier work
[5] = system: arachidonic acid release in RAW cells; assay: Arachidonic acid release in RAW cells; type: cell-based, murine
Description: Radiolabelled arachidonic acid was incorporated into the cellular lipid pools for 20 hours. […] Over the concentration range of 1.6-32 mM, a 300% increase in labeled, free arachidonic acid was found in the media when compared to vehicle treated control values. Media from cells in the control group contained 8,800±1600 dpm.
The cells were grown in MEM with 1% penicillin-streptomycin and 10% fetal bovine serum at 37° C. under 95% […]:5% carbon dioxide to about 85% confluence. Cells were contained in 24-well plates and labeled with 100,000 dpm/ml/well of ^3H or ^14C arachidonic acid at 37° C. for 20 hours (Pestonjamasp and Burstein, Biochim Biophys Acta, 1394(2-3):249-60, 1998). The wells were washed 4 times with 0.5% BSA in MEM followed by incubation in 1 ml 0.1% BSA-MEM for 60 minutes. […] Control values were obtained with 10 μl of vehicle. Media were collected, centrifuged at 3000×g to remove cells, and 0.1 ml withdrawn and assayed for radioactivity by liquid scintillation counting.

[6] = system: RAW 264.7 murine monocyte cells; assay: RAW cell proliferation (MTT assay); type: cell-based; conditions: 24 hours treatment; 25, 50 and 100 mM
Description: Cells were maintained in MEM containing 0.5% serum overnight. […] After a 24 hour incubation period, […] MTT (Sigma Co) solution (5 mg/ml in PBS) was added to each well and incubated for 2 hours at 37° C. Then, cells were triturated in 1.1 ml isopropanol MTT solubilization solution (Sigma Co). […] of this mixture was then transferred in duplicate to a 96 well plate and the optical density recorded using a ThermoMax® microplate reader at […] absorbance. Based on a standard curve with known numbers of cells, experimental readings were in the linear range for cell numbers.
Values shown in FIG. 5 are optical density readings obtained using the MTT assay and are directly proportional to the numbers of cells. They are the means of four replicates ± SD. […] The values shown are the optical density readings obtained from the MTT assay where a value of 0.5 is approximately equivalent to 2×10^4 cells. Vehicle treated cells served as the control and gave a reading of 0.396±0.047 O.D. units. The data shown is representative of three independent experiments.

[7] = system: blood levels of anandamide; conditions: 10 mg/kg p.o., rats, 45 minutes post treatment, vs vehicle-treated
Description: Anandamide and NAGly levels were measured in plasma extracts by HPLC-MS/MS with d8-anandamide added as an internal standard. Reverse phase HPLC was performed on a 100×1 mm i.d. column packed with ODS Hypersil® (3 μm, 120 A pore size, Keystone Scientific, Inc., Bellefonte, Pa.). A Rheos® 2000 micro HPLC pumping system was used to pump the mobile phase (90% methanol, 10% 0.05% pH 5.7 aqueous ammonium acetate buffer) at 50μl/minute. The outlet from the column was connected directly to the electrospray ion source of a Finnigan® LCQ quadrupole ion trap mass spectrometry system. Positive ion electrospray ionization was used with the source at 4500 V, the capillary at 200° and the nitrogen sheath gas at a relative setting of 60. NAGly eluted at 1.4 minutes and was detected by MS2 of its MH+ion (m/z 362.2) with an isolation window of 2.5 Th and relative collision energy (CID) of 29%. Full product ion spectra were collected from m/z 95-370 and peak areas from ion plots of m/z 287.2 were used for quantitation. Anandamide and d8-anandamide were similarly detected using their MH+ions (m/z 348.2 and 356.2) as precursors with isolation windows of 2.5 Th and CID at 30%. […] Concentrations of NAGly and anandamide were calculated from their peak area ratios to the internal standard with reference to an external calibration curve. […]

IL-1β [8] = assay: IL-1β release from human peripheral blood monocytes (ELISA), LPS stimulated or not stimulated; type: cell-based; parameters: IL-lé release from PBM not stimulated with LPS (adherence only): dose or concentration left out as unconfirmed; conditions: for IL-lé secretion from LPS stimulated peripheral blood mononuclear cells: 60 min preincubation, LPS 10 ng/ml 18 hours; for IL-lé release from PBM not stimulated with LPS (adherence only): unstimulated cells, 18 hours
Description: Cells (2×106) were incubated for 60 minutes with either agent at the indicated concentrations. Vehicle (0.5% DMSO) treated cells served as controls. Cells were then not stimulated (FIG. 3A) or stimulated (FIG. 3B) with LPS (10 ng/ml) for 18 hours, at which time supernatant IL-lé was measured by ELISA. Values shown are the means obtained from triplicate samples (Control A=826 pg/ml; Control B=8.68±0.5 ng/ml).

NF-κB = assay: NFk-B inhibition studies in PBM (DNA binding, autoradiographic-PAGE); type: cell-based; conditions: 1 hour, then LPS 10 ng/ml 60 minutes; human PBM, two donors
Description: PBM from two donors were prepared and treated separately. Cell extracts were then obtained and analyzed for DNA binding of NF-kB, as determined by autoradiographic-PAGE measurement, according to the following method. […] Media were then removed and the cells were transferred to 1.5 ml microcentrifuge tubes and washed 2 times with ice cold PBS. After centrifugation at 10,000 rpm, PBS was removed and 0.5 ml of cytoplasmic extraction buffer (buffer A) was added to the cell pellet. Tubes were vortexed and placed on ice for 10 minutes, then centrifuged at 12,000 rpm for 5 minutes. Cells were washed once with buffer A, which was then added to previous cytosol extract fraction. Cytoplasmic extracts were saved at −80° C. until use. 0.1 ml of cold nuclear extraction buffer (buffer B) was then added to precipitated nuclei and incubated for 60-120 minutes in ice. Nuclear extracts were obtained by centrifugation at 12,000 rpm for 10 minutes and saved at −80° C. until use. (Extraction buffer A is a hypotonic solution and contains HEPES, KCl, EDTA, EGTA, DTT, PMSF, leupeptin, antipain, aprotinin, and NP-40 detergent. Extraction buffer B is a high salt buffer and contains all of the above agents plus glycerol.) The protein concentrations of the nuclear extracts were determined by the Bradford protein assay (Coumassie blue staining). […] Gels were scanned and analysed utilizing the Adobe software for PC.

human T lymphocytes [9] = conditions: Burstein et al. 2000; cited from earlier work
human T lymphocytes [10] = assay: Proliferation of anti CD3, CD4 treated human T lymphocytes; type: cell-based; conditions: 0.1 to 1.0 mM, vs vehicle (DMSO)
human T-lymphocytes = assay: PHA stimulated T-cell proliferation (BrDU incorporation); type: cell-based; conditions: 0.1-10 mM, PHA 10 ng/ml, 72 hours
Description: The cells were then stimulated with PHA (10 ng/ml) and incubated for 72 hours. A control set treated with NAGly/DMSO not stimulated with PHA was incubated in parallel. Cell numbers were determined by measuring BrDU incorporation for 24 hours. The values shown (see “PRO[…]” on the y-axis) are the ratios of the optical density readings from treated and control cells.
Cell proliferation in vitro was measured by incorporation of 5-bromo-2′-deoxyuridine (BrDU) instead of thymidine into the DNA of proliferating cells. […] Cells (2×10^5 per well) were then cultured in 96 well, flat bottomed microtiter plates and stimulated with PHA (10 ng/ml) or not stimulated. Cultures were maintained for 72 hours in a standard cell incubator at 37° C. BrDU was then added to all wells and cells are then reincubated for 24 hours. The medium was removed and the cells were fixed and DNA was denatured. Anti-BrDU-peroxidase was added and the immune complex was detected by substrate (tetramethylbenzidine) reaction. The reaction was stopped with […] sulfuric acid (1N) and the product was quantified by measuring the absorbance at 492 nm with reference at 650 nm. Absorbance correlated directly to the amount of DNA synthesis, and, thereby, to the number of proliferating cells in each culture.

[11] = 275 nmol coinjected with formalin

Question: For NCC(=O)O [glycine, reference compound], which “pain suppression in the formalin test” value [1, 11] is on record?
Answer: Neither glycine nor arachidonic acid (275 nmol) suppressed pain

Question: Which “paw edema response of the reference NSAID” value ([2]; 0.2 mg/kg) does the source give for COc1ccc2c(c1)c(CC(=O)O)c(C)n2C(=O)c1ccc(Cl)cc1 [indomethacin, reference compound] here?
Answer: equivalent response

Question: Which “elevation of basal concentrations of anandamide” value [3] does the source give for “Deuterated N-arachidonylglycine [d8-NAGly]” here?
Answer: 50%

Question: And the “increase in anandamide (unlabelled)” value ([3]; 10 mM deuterated NAGly)?
Answer: ~3 ng/mL

Question: And the “increase in d8-anandamide” value ([3]; 10 mM deuterated NAGly)?
Answer: < 0.5 ng/mL

Question: For N-arachidonyl glycine [NAGly], which “IL-1β secretion from stimulated human PBMC” value (IL-1β [4]) is on record?
Answer: modestly suppress

Question: And the “increase in labeled, free arachidonic acid in the media” value ([5]; 1.6-32 mM, 60 minutes, vs vehicle treated control)?
Answer: 300%

Question: And the “stimulation of arachidonic acid release” value ([5]; range of 2-32 mM)?
Answer: three fold stimulation

Question: What about the “second phase (tonic pain) of the formalin response” value ([1]; 275 nmol coinjected with formalin, intraplantar) of the same molecule?
Answer: markedly suppressed

Question: And the “first phase (acute pain) of the formalin response” value ([1]; coinjected with formalin, intraplantar)?
Answer: no effect

Question: And the “inhibition of RAW cell proliferation (MTT optical density)” value [6]?
Answer: dose-related inhibition; also recorded: Significant decreases in cell numbers; also recorded: significant inhibition of cell proliferation

Question: What about the “rise in blood levels of anandamide” value [7] of the same molecule?
Answer: nearly ten-fold rise

Question: And the “IL-lé secretion from LPS stimulated peripheral blood mononuclear cells” value (shortened to “IL-lé secretion”) (IL-1β [8])?
Answer: more effective inhibitor than anandamide; also recorded: suppresses; also recorded: inhibitory in a dose-related fashion

Question: What about the “IL-lé release from PBM not stimulated with LPS (adherence only)” value (IL-1β [8]) of the same molecule?
Answer: more effective inhibitor than anandamide; also recorded: striking reduction; also recorded: markedly reduces

Question: And the “binding of NF k-B to DNA / NFk-B activation” value (NF-κB)?
Answer: effectively reduces; also recorded: strong inhibitory effect

Question: And the “proliferation of CD3-CD4 antibody-stimulated T-cells, prior observation” value (human T lymphocytes [9])?
Answer: biphasic effect

Question: What about the “elevation of basal concentrations of anandamide” value [3] of the same molecule?
Answer: 50%

Question: And the “proliferation of anti CD3, CD4 treated human T lymphocytes” value (shortened to “proliferation of anti CD3”) (human T lymphocytes [10])?
Answer: inverse dose-related increase; also recorded: stimulatory at low concentrations and somewhat inhibitory at higher concentrations

Question: And the “reduction of paw volumes” value ([2]; 4 mg/kg orally, vs vehicle treated)?
Answer: reduced paw volumes by one half

Question: And the “paw edema response compared with indomethacin” value ([2]; NAGly 4 and 40 mg/kg vs 0.2 mg/kg indomethacin)?
Answer: equivalent response

Question: What about the “reduction of paw edema” value ([2]; doses of 4 and 40 mg/kg p.o., 30 min before arachidonic acid, vs untreated control mice that received only arachidonic acid) of the same molecule?
Answer: more than 50%

Question: For CCCCC/C=C\C/C=C\C/C=C\C/C=C\CCCC(=O)NCCO [anandamide, reference compound], which “IL-1β secretion from stimulated human PBMC” value (IL-1β [4]) is on record?
Answer: modestly suppress

Question: What about the “proliferation of PHA stimulated T-cells (proliferation index)” value (human T-lymphocytes) of the same molecule?
Answer: little or no effect

Question: What about the “proliferation of PHA stimulated T-cells (proliferation index)” value (human T-lymphocytes; listed as Anandamide) of the same molecule?
Answer: no significant effects

Question: What about the “IL-lé secretion” value (IL-1β [8]) of the same molecule?
Answer: smaller effect

Question: And the “IL-lé secretion” value (IL-1β [8]; listed as Anandamide)?
Answer: less effective than NAGly

Question: And the “IL-lé release from PBM not stimulated with LPS (adherence only)” value (IL-1β [8])?
Answer: less effective than NAGly

Question: And the “proliferation of anti CD3” value (human T lymphocytes [10])?
Answer: either no effect or a modest inhibition

Question: And the “proliferation of anti CD3” value (human T lymphocytes [10]; listed as Anandamide)?
Answer: only inhibition

Question: Which “pain suppression in the formalin test” value [1, 11] does the source give for CCCCC/C=C\C/C=C\C/C=C\C/C=C\CCCC(=O)O [arachidonic acid, reference compound] here?
Answer: Neither glycine nor arachidonic acid (275 nmol) suppressed pain
